Results: patent publication US10517839B2, “Mast cell inhibition in diseases of the retina and vitreous” (Cornell University, priority 2008, dated 2019)
Entries after “also recorded” stand apart in the source; their conditions may differ.

Tests used:
[1] = system: isolated perfused diabetic kidneys; assay: Flow rate of isolated perfused diabetic kidneys after mast-cell degranulation with 48/80; settings: diabetic rat kidney; for vasoconstriction response to 48/80 compared to untreated diabetic kidney (in words): BILA 2157 in perfusate
Description: Mast-cell degranulation was induced with agent 48/80, which will release renin, as the inventors have previously shown, as well as numerous other mediators synthesized and stored by mast cells.
Flow rate (ml/min) was measured under constant perfusion pressure, and is plotted against time (min).
After establishing a constant flow rate, mast-cell degranulation was induced by injecting the 48/80 degranulating agent (300 μg/ml) into the renal artery (at arrow). […] However, the magnitude of this vasoconstriction response was markedly different between the two kidneys. […] Moreover, the return to baseline flow rate was much faster in the BILA2157-treated diabetic kidney (˜8 min) compared to the untreated diabetic kidney (˜40 min). The rate of the initial flow recovery was also greater in the BILA-treated diabetic kidney (0.5 mls/min/min) compared to the untreated diabetic kidney (0.3 mls/min/min). […] In situ, the time it takes to return to normal flow after an acute increase in vascular resistance can profoundly influence the extent of ischemic damage in the kidney.

STZ-induced diabetic rat = assay: Retinal whole mounts stained with FITC-griffonia lectin (tortuosity of retinal microvasculature); assay type: in vivo; settings: cromolyn-treated diabetic rat, retinal whole mount
Description: To induce a model of type-I diabetes, Sprague Dawley and Long-Evans rats were injected with a single dose of streptozotocin (STZ) (60 mg/kg) and maintained for 2 months. Hyperglycemia was confirmed by monitoring blood from tail bleeds. To assess vascular leakage in these diabetic rats, fluorescein retinal angiography was performed weekly over a 2-month time course in the Long-Evans rats. In some experiments, rats were treated with the mast cell stabilizer, Na-cromolyn, topically administered to the eyes. […] This Example describes an analysis of the retinal vasculature from fixed eyes of control (A), diabetic (B), and cromolyn-treated diabetic (C) rats.

[2] = system: STZ-induced diabetic rat model (Long Evans strain); assay: Fluorescein angiography of retinal vascular permeability; assay type: in vivo; settings: for leakage/pooling of fluorescein dye out of retinal vessels: 2 drops b.i.d.; for retinal vascular leakiness (fluorescein) over time: STZ Long-Evans rats, 14 and 28 days, n=3, FIG. 14
Description: To assess vascular leakage in these diabetic rats, fluorescein retinal angiography was performed weekly over a 2-month time course in the Long-Evans rats. In some experiments, rats were treated with the mast cell stabilizer, Na-cromolyn, topically administered to the eyes. The structure of Na-Cromolyn is shown below.
Angiography was performed on an upright fluorescence microscope using a long working distance lens. At the 2-month end point, rats were sacrificed and the eyes were enucleated, dissected free of cornea and extra-orbital connective tissue, and fixed in 4% paraformaldehyde.
The STZ-induced diabetic rat model (Long Evans strain) (40 mg/kg body wt; 28 days) was used for these studies. Fluorescein angiography was performed to assess the permeability of the retinal vasculature in these rats. The pigmented eyes of this strain facilitate angiography. Diabetic rats were treated with the mast cell stabilizer Na-cromolyn and the vascular permeability of these treated rats was compared to diabetic rats that were not treated with Na-cromolyn.
Weekly angiograms were also performed on control rats, STZ-injected, and STZ-injected rats treated with the mast cell stabilizer, Na cromolyn […], topically administered to the eyes (2 drops b.i.d.).
The STZ-induced diabetic rat model (Long Evans strain) (40 mg/kg body wt; 28 days) was used for fluorescein angiography experiments. The pigmented eyes of this strain facilitate angiography. To evaluate the role of mast cells, weekly angiograms were performed on control rats, STZ-injected, and STZ-injected rats treated with the mast cell stabilizer, Na cromolyn (4%), topically administered to the eyes (2 drops b.i.d.).

[3] = system: STZ-induced hyperglycemic Long-Evans rats; assay: Evan's Blue dye leakage across the blood-retinal barrier; assay type: in vivo, rat; settings: Na cromolyn 4% topical, 2 drops twice a day, day 15 post STZ, n=4 rats
From the text: In order to verify this finding, additional experiments were designed to measure leakiness across the blood-retinal barrier of STZ-induced hyperglycemic Long-Evans rats and to determine whether mast cell stabilization reduces vascular permeability in the hyperglycemic state. Blood glucose levels were monitored weekly to verify the hyperglycemic state. The three groups of animals were as follows: untreated hyperglycemic, cromolyn-treated hyperglycemic, and normo-glycemic (vehicle injected). The hyperglycemic group of rats was treated with the mast cell stabilizer (Na cromolyn, 4%) by topical administration to the eyes (2 drops twice a day), as described above.
Measurements of the Evan's Blue dye concentration across the blood-retinal barrier were performed on day 15 post±STZ-injection. […] 100 μl of the filtrate was then measured in a spectrophotometer at 620 nm, the dye's absorbance maximum. The dye's absorbance minimum, 740 nm, served as a reference wavelength. Dilutions (1:1000 in formamide) of the collected plasma were also measured spectrophotometrically at this time. Sample absorbance measurements were converted to concentrations using absorbance measurements from known concentrations of Evan's Blue in formamide. Dye leakage from blood to retina was calculated as: […]

VEGF = VEGF levels in retinas of STZ-injected diabetic rats; assay type: in vivo, rat; settings: for effect on VEGF levels in retina (in words): STZ-induced diabetic rats, Na-Cromolyn 4% topical
Description: The STZ-induced diabetic rat model (Long Evans strain) (40 mg/kg body wt; 28 days) was used for these studies. To evaluate the effect of a mast cell stabilizer on VEGF levels, STZ-injected rats were treated with the mast cell stabilizer, Na-Cromolyn (4%), topically administered to the eyes (2 drops b.i.d.). VEGF levels were measured in the retinas of STZ-injected diabetic rats treated with Na-Cromolyn and these levels were compared to VEGF levels in the retinas of control rats and in the retinas of STZ-injected diabetic rats that received no Na-Cromolyn. Control rats received no streptozotocin (STZ) and no Na-Cromolyn.

HMC-1 cells = assay: Chemotaxis of HMC-1 cells in Corning transwells; assay type: cell-based, human; settings: transwell, p<0.05
Description: Chemotaxis experiments were performed with cultured human mastocytoma cells. HMC-1 cells were plated in Corning transwells consisting of inner and outer wells. The number of mast cells migrating through the insert in response to exogenous histamine±thioperamide, an H3/H4 histamine receptor […], was counted.

renin = assay: Renin activity (ANG I formed, RIA) of HMC-1 cells before and 48 hours after siRNA transfection; assay type: cell-based, human; settings: siRNA 50 nM, 48 hours after transfection
Description: Renin-specific siRNA duplexes were made based on the coding sequence of human renin between exons 2-8 (Dharmacon) (accession number M26900). The four siRNA duplexes were made against the following renin sequences:
To assess the efficacy of this siRNA approach, the activity of renin protein was measured both before siRNA transfecting and at 48 hours after transfection of the HMC-1 cells.
HMC-1 cells were seeded in 6-well plates. Cells were transfected either with: renin siRNA duplexes (50 nM), scrambled siRNA duplex (50 nM), or treated with the transfection reagent (control), and maintained for 48 hours. An aliquot of cells from each well was counted to estimate the cell number before (initial) and 48 hours after transfection (post). The ability of the siRNA duplexes to silence renin mRNA in the transfected HMC-1 cells was determined by comparing the amount of ANG I formed in the releasate pre- and post-transfection by radioimmunoassay (RIA). […] The amount of ANG I generated on each sample is expressed as pg ANG I formed/ml/hr/10^5 cells. The effect of the siRNA on the amount of renin protein produced by the cell was determined by comparing the initial and final amounts of ANG I formed (renin activity) by the releasates.

CC(C)C[C@H](O)[C@H](O)[C@H](CC1CCCCC1)NC(=O)[C@@H](CC(=O)N(CC(=O)N(C)CCc1ccccn1)CC1CCCCC1)Cc1csc(N)n1 [BILA2157]
rate of the initial flow recovery ([1]; 100 nM BILA 2157, after 48/80): 0.5 mls/min/min | return to baseline flow rate ([1]; 100 nM BILA 2157, after 48/80): ~8 min | flow rate after 48/80 injection (from baseline 20 ml/min) ([1]; 100 nM BILA 2157 in perfusate, constant perfusion pressure, 48/80 300 μg/ml into renal artery): 12 mL/min | effect on flow rate in the absence of a degranulating agent ([1]; 100 nM in perfusate): no effect on flow rate | vasoconstriction response to 48/80 compared to untreated diabetic kidney (in words) [1]: much less vasoconstriction | vasoconstriction response to 48/80 compared to untreated diabetic kidney (in words) ([1]; listed as BILA 2157): offsets the rate reducing effects

O=C([O-])c1cc(=O)c2c(OCC(O)COc3cccc4oc(C(=O)[O-])cc(=O)c34)cccc2o1.[Na+].[Na+] [Na-cromolyn, Na-Cromolyn]
tortuosity / abnormal vessel morphology of retinal microvasculature (STZ-induced diabetic rat): abnormal changes in the vessel morphology were not observed | leakage/pooling of fluorescein dye out of retinal vessels ([2]; Na cromolyn 2% topical, day 28, FIG. 15): prevented dye pooling | leakage/pooling of fluorescein dye out of retinal vessels ([2]; Na cromolyn 4% topical, weekly angiograms): prevented dye pooling | retinal vascular leakiness (fluorescein) over time [2]: greatly diminished | retinal vascular leakiness (fluorescein) over time ([2]; listed as cromolyn): reduces the leakage of fluorescein from retinal vessels | Evan's Blue dye leakage across the blood-retinal barrier [3]: prevented dye leakage into the retinal space; also recorded: protects against the early phase of increased vascular permeability | Evan's Blue dye leakage across the blood-retinal barrier ([3]; listed as cromolyn Na): protective effect against increased vascular permeability | effect on VEGF levels in retina (in words) (VEGF): reduces vascular endothelial growth factor (VEGF) levels | effect on VEGF levels in retina (in words) (VEGF; listed as Cromolyn Na): decreases vascular endothelial growth factor (VEGF) levels | VEGF level in retina (VEGF; STZ-injected hyperglycemic rats, Na-Cromolyn 4% topical 2 drops b.i.d., 1 month, n=2): about 65 pg VEGF/ml/mg retina

NCCc1c[nH]cn1 [histamine]
number of mast cells migrating through the insert in response to exogenous histamine (HMC-1 cells; vs control): significantly more migration

S=C(NC1CCCCC1)N1CCC(c2cnc[nH]2)CC1 [thioperamide]
migration with histamine alone compared to thioperamide alone or histamine in the presence of thioperamide (HMC-1 cells): significantly more migration

scrambled control siRNA: negative control, non-specific scrambled siRNA duplex, SEQ ID NO: 9 and 10 (chain 1 AUGUAUUGGCCUGUAUUAGUU; chain 2 CUAAUACAGGCCAAUACAUUU; listed as RNA, chemistry not given here)
change in renin activity / amount of ANG I formed after transfection (in words) (renin): no significant decrease
